From patent US20190282673A1, “STAPHTAME ACTIVITY ON BIOFILMS” (priority 2016, published 2019)

What was measured:
[1] = system: S. epidermidis strain B9470; assay: Generation and confirmation of antibiotic persisters (CFU over time); type: cell-based, Staphylococcus epidermidis; details: for CFU/mL, generation of persisters: Vancomycin 50X, Daptomycin 10X MIC; for CFU/mL, confirmation of persisters (regrown, re-exposed): head prints Vancomycin 100X, Daptomycin 50×
Description: (§1) Persisters of S. aureus BK18 and B9377 and S. epidermidis strain B9470 were generated as per protocol described by Lechner, et al (Staphylococcus aureus persisters tolerant to bactericidal antibiotics. Lechner, et al. (2012) J Mol Microbiol Biotechnol; 22(4):235-44). Briefly, colonies were suspended in LB broth and allowed to grow at 37° C., 200 rpm for ˜2 hours. The cultures were pelleted, resuspended in MHB and OD600 was adjusted to 0.5 to 1.0 OD (˜2 to 5×10^8 CFU/mL). […] The test tubes were incubated at 37° C., 200 rpm, and 250 μL was sampled out at 4, 8, and 24 hr time points. This aliquot was pelleted, washed in saline and resuspended in equal volume of saline, diluted and plated on LB agar. Rapid decrease in CFUs, followed by rather stable values for up to 24 hrs, indicated the presence of Daptomycin/Vancomycin tolerant persisters.
(§2) After sampling for P128 and antibiotic activity, the rest of the sample was pelleted, washed in saline and resuspended into fresh media (LB). Allowed to grow at 37° C., 200 rpm until it reaches 1 OD and then the same steps followed as done for generation of persisters. A biphasic growth curve similar to that obtained during generation of persisters would indicate the tolerance to be phenotypic and not genotypic.

[2] = system: S. aureus strains BK18 and B9377; assay: as above; type: cell-based, Staphylococcus aureus; details: for CFU/mL, generation of persisters / CFU/mL, confirmation of persisters (regrown, re-exposed): Vancomycin 100X; for CFU/mL, generation of persisters: Daptomycin 50X MIC; for CFU/mL, confirmation of persisters (regrown, re-exposed): Daptomycin 50×
Description: as §1, §2

[3] = system: S. epidermidis B9470 biofilms on catheters; assay: Preformed biofilms on catheters, safranin staining and SEM; type: cell-based, Staphylococcus epidermidis; details: 18 hrs; P128 8 μg/mL (1×MIC); vancomycin 30 μg/mL (30×MIC)
Description: In order to simulate the in vivo conditions for biofilm formation in device associated infections, S. epidermidis B9470 was allowed to form biofilms on the surface of catheters. An overnight-grown culture was diluted 1:40 in TSB containing 4% sodium chloride. Catheter (JMS Infusion set) pieces of 1-2 cm size were cut, slit into two halves and added to the culture. The cultures with catheter pieces were incubated at 37° C. with shaking at 100 rpm for 42 h. Post incubation, the catheters were removed and rinsed twice in PBS to remove the adhering planktonic cells. The biofilms on catheters were challenged with 8 μg/mL of P128 or 30 μg/mL of vancomycin by transferring the catheter pieces into tubes containing the drugs. The tubes were incubated at 37° C. under static conditions for 18 hrs. The catheters were then removed from the tubes, rinsed once in PBS, and immersed in 0.1% safranin [a dye that stains cell wall of bacteria] for 5 min. The stained catheters were washed once in PBS and allowed to dry. After drying, samples were fixed on aluminum stubs with double sided carbon adhesive tape, coated with 5-7 nm thickness gold using a sputter-coating system (Quorum Technologies; Q150T) and examined by SEM (Carl Zeiss. Neon 40) for the presence of biofilm structures.

S. aureus USA300 = assay: Mouse model of S. aureus with mucin-enhanced virulence, survival; type: in vivo, BALB/c mice; details: S. aureus USA300 10^9 CFU ip, P128 […] ip, Vancomycin 27.5 mg/kg sc 2 doses, or both
Description: Eight to nine weeks old female BALB/c mice were challenged intraperitoneally with 10^9 CFU of S. aureus USA300. At 2 hours post-infection, animals were treated with either P128 at 2.5 mg/kg intraperitoneally, or vancomycin at 27.5 mg/kg subcutaneously, or combination of both. Groups treated with only vancomycin or combination of P128 and vancomycin were administered with a second dose of vancomycin at 12 hours after the first treatment. At 72 hours post-infection, P128 and vancomycin yielded 56 and 44% survival, respectively.

CN[C@H](CC(C)C)C(=O)N[C@H]1C(=O)N[C@@H](CC(N)=O)C(=O)N[C@H]2C(=O)N[C@H]3C(=O)N[C@H](C(=O)N[C@H](C(=O)O)c4cc(O)cc(O)c4-c4cc3ccc4O)[C@H](O)c3ccc(c(Cl)c3)Oc3cc2cc(c3O[C@@H]2O[C@H](CO)[C@@H](O)[C@H](O)[C@H]2O[C@H]2C[C@](C)(N)[C@H](O)[C@H](C)O2)Oc2ccc(cc2Cl)[C@H]1O [Vancomycin, vancomycin]
CFU/mL, generation of persisters ([1]; B9470, 0 h): 3.2 × 10^7 CFU/mL
CFU/mL, confirmation of persisters (regrown, re-exposed) ([1]; B9470, 0 h): 2 × 10^7 CFU/mL
CFU/mL, generation of persisters ([1]; B9470, 2 h): 1 × 10^6 CFU/mL
CFU/mL, confirmation of persisters (regrown, re-exposed) ([1]; B9470, 2 h): 1 × 10^5 CFU/mL
CFU/mL, generation of persisters ([1]; B9470, 4 h): 3 × 10^5 CFU/mL
CFU/mL, confirmation of persisters (regrown, re-exposed) ([1]; B9470, 4 h): 6 × 10^4 CFU/mL
CFU/mL, generation of persisters ([1]; B9470, 8 h): 9 × 10^3 CFU/mL
CFU/mL, confirmation of persisters (regrown, re-exposed) ([1]; B9470, 8 h): 1.5 × 10^4 CFU/mL
CFU/mL, generation of persisters ([1]; B9470, 24 h): 3 × 10^4 CFU/mL
CFU/mL, confirmation of persisters (regrown, re-exposed) ([1]; B9470, 24 h): 5 × 10^3 CFU/mL
CFU/mL, generation of persisters ([2]; B9377, 0 h): 2.5 × 10^8 CFU/mL
CFU/mL, confirmation of persisters (regrown, re-exposed) ([2]; B9377, 0 h): 1.5 × 10^8 CFU/mL
CFU/mL, generation of persisters ([2]; B9377, 4 h): 8 × 10^6 CFU/mL
CFU/mL, confirmation of persisters (regrown, re-exposed) ([2]; B9377, 4 h): 2 × 10^6 CFU/mL
CFU/mL, generation of persisters ([2]; B9377, 8 h): 1.9 × 10^6 CFU/mL
CFU/mL, confirmation of persisters (regrown, re-exposed) ([2]; B9377, 8 h): 2 × 10^6 CFU/mL
CFU/mL, generation of persisters ([2]; B9377, 24 h): 1.1 × 10^5 CFU/mL
CFU/mL, confirmation of persisters (regrown, re-exposed) ([2]; B9377, 24 h): 8 × 10^5 CFU/mL
CFU/mL, generation of persisters ([2]; BK18, 0 h): 2 × 10^8 CFU/mL
CFU/mL, confirmation of persisters (regrown, re-exposed) ([2]; BK18, 0 h): 1 × 10^8 CFU/mL
CFU/mL, generation of persisters ([2]; BK18, 4 h): 1 × 10^7 CFU/mL
CFU/mL, confirmation of persisters (regrown, re-exposed) ([2]; BK18, 4 h): 2.5 × 10^5 CFU/mL
CFU/mL, generation of persisters ([2]; BK18, 8 h): 2 × 10^6 CFU/mL
CFU/mL, confirmation of persisters (regrown, re-exposed) ([2]; BK18, 8 h): 1 × 10^5 CFU/mL
CFU/mL, generation of persisters ([2]; BK18, 24 h): 4 × 10^5 CFU/mL
CFU/mL, confirmation of persisters (regrown, re-exposed) ([2]; BK18, 24 h): 1 × 10^5 CFU/mL
Drop in CFU at the end of 4 h treatment ([2]; generation of persisters): Approximately two log drop in CFU
Effect on catheter biofilm (safranin/SEM) [3]: minimal effect
Survival at 72 h post infection (S. aureus USA300): 43%
Survival at 72 h post infection (S. aureus USA300; listed as vancomycin): 44%
